This note sets out measurements from patent US20090149412A1, “Method for Inhibition of Phospholamban Activity for the Treatment of Cardiac Disease and Heart Failure” (THE REGENTS OF THE UNIVERSITY OF CALIFORNIA, priority 1999, published 2009).

Values joined by “and” are separate entries in the source; they are usually repeats but may differ in a detail not shown here. Equal values may be shown once.

Holding throughout (format): cell-based
Assay [1] relates to PLB protein. Kind of assay: Western blot quantification of PLB protein content in myocytes infected with adenovirus transgenes. As to conditions: normalized to a-actin, compared with adenovirus/SR control lacking the transgene. The source says:
FIG. 6a is a Western blot analysis of myocytes containing the adenovirus transgenes expressing sense PLB (sPLB), antisense PLB (asPLB), E2A, R14E, S16N, and K3E/R14E against monoclonal PLB. FIG. 6b is a Western blot showing the results of cell infectivity by PLB, sPLB and K3E/R14E. FIG. 6c illustrates the Western blot analysis of PLB infectivity of So18 cells.
Additional Western blot analysis of myocytes containing the adenovirus transgenes expressing sense PLB (sPLB), antisense PLB (asPLB), E2A, R14E, S1.6N, and K3E/R14E against monoclonal PLB antibody (Affinity BioReagents) is shown in FIG. 6a. […] In contrast, asPLB and S16N results in 54% and 33% decrease in PLB protein content within the myocytes. The introduction of K3E/R14E transgene infection of myocytes leads to a formation of a distinct pattern of pentamer PLB. Multiple PLB bands appear in addition to PLB5 (the pentamer).
(In general: In western blotting, separated proteins are transferred to a membrane and probed.)

Assay [2] relates to isolated mouse cardiomyocytes. Kind of assay: Contraction cycle of isolated mouse cardiomyocytes with penetratin-PLB peptide. As to conditions: 10 μM peptide; for Maximum Contract. / Minimum Contract.: arbitrary unit of length, single samples 1-7 and Mean; for Relax. Slope: control mean 0.9814. The source says:
Cell level studies were done to evaluate the ability of two penetratin-based peptides, two mutant PLB-penetratin peptides, and two multiple antigen peptides (MAP) to strengthen the contraction cycle of isolated mouse cardiomyocytes. The two penetratin-based peptides include PLB-ANT (Seq. ID. No. 10) and TAT-PLB (Seq. ID. No. 11) each of which have a 20 residue portion of the PLB sequence attached to either the 5′ end of ANT (Seq. ID. No. 14) or the 3′ end of TAT (Seq. ID. No. 15). The two mutant PLB peptides, mutant PLB-ANT (Seq. ID. No. 12) and TAT-mutant PLB (Seq. ID No. 13), display a S16E mutation of the 20 residue PLB sequence. The multiple antigen peptides include MAP with 8 penetratin (ANT) domains and MAP with 4 penetratin domains and 4 PLB domains.
Each of the penetratin-PLB peptides were evaluated to measure their ability to strengthen the contraction cycle of isolated mouse cardiomyocytes, the idea being that the penetratin-PLB peptide would act as a dominant negative inhibitor of the PLE3-SERCA2a interaction.
Measurements were taken every 20 milliseconds, and the unit of length was arbitrary, but was generally on the order of one complete cell length. Percent contraction was calculated as (maximum length minus minimum length) divided by maximum length. A plot of time versus length generated a U-shaped curve from which the most linear segments were selected, with the left side of the “U” representing contraction and the right side representing relaxation.

Assay [3] concerns SR Ca2+ transport. Kind of assay: Radioactive Ca2+ transport assay (SR Ca2+ transport). As to conditions: adenoviral vector expressing contractilin, rat cardiomyocytes. How it is done: The amplified and purified hypervariable region RNA is then fused to a single cDNA (Seq. ID. No. 9) and subsequently cloned in frame into a plasmid vector, coding for a phage surface protein. Using standard phage display technique, phages which express the immune library of the chicken are selected by their positive response to the PLB peptide. After a series of enrichment for phages which specifically bind PLB, 20 clones are selected for ELISA. The resulting 5 best binders are then analyzed using a radioactive Ca^2+ transport assay. The two best activators of SR Ca^2+ transport are further analyzed. Both clones are found to dramatically stimulate the rate of Ca^2+ transport into the SR.

In the case of “E2A: adenoviral single point mutation of PLB, Seq. ID. No. 3 (MAKVQYLTRSAIRRASTIEMPQQARQKLQNLFINFCLILICLLLICIIVMLL; adenoviral vector; listed as Homo sapiens)”, the “increase in PLB protein level” value in assay [1] is listed as 72%.

Take “TAT-PLB: 20 residue portion of the PLB sequence attached to the 3′ end of TAT, Seq. ID. No. 11 (GGGGYGRKKRRQRRRMEKVQYLTRSAIRRASTIEM; listed as Homo sapiens)”: the “effect on myocyte contraction (overall)” value in assay [2] (T-test, no statistical difference) is listed as “trend towards a larger, faster contraction”. In assay [2], the “Maximum Contract.” value was 112.57 and 109.68 and 133.82 and 81.61 and 74.423 and 126.89 and 133.61; the “Minimum Contract.” value was 101.17 and 102.00 and 116.32 and 67.871 and 64.629 and 108.38 and 128.21; the “Relax. Slope” value is 0.9925 and 0.9790 and 0.9878 and 0.9697 and 0.9933 and 0.9939 and 0.9959. In assay [2] (mean), the “Maximum Contract.” value stood at 110.373, the “Minimum Contract.” value is 98.363 and the “Relax. Slope” value is listed as 0.9874.

As for “R14E: adenoviral single point mutation of PLB, Seq. ID. No. 4 (MEKVQYLTRSAIREASTIEMPQQARQKLQNLFINFCLILICLLLICIIVMLL; adenoviral vector; listed as Homo sapiens)”, the “increase in PLB protein level” value in assay [1] came out at 57%.

B1: contractilin: recombinant protein from chicken polyclonal PLB antibody hypervariable regions, expressed from adenoviral vector (Seq. ID. No. 9) (protein, listed as Homo sapiens)
chain: MHHHHHHVAQAALTHSSSVSANPGETVKITCSGGGNYAGSYYYGWFQQKSPGSAPVTVIYSNDQRPSNIPSRFSGSTSGSTSTLTITGVRAEDEAVYFCGSNSGTGYVGIFGAGTTLTVLGQSSRSSTVTLDESGGGLQTPGGALSLVCRASGFTFSRFHMMWVRQAPGKGLEWVAGIDDGGSFTLYGAAVKGRATILRDNGQSTVRLQLDNLRPEDTATYFCVKTKCGGNGWCGADRIDAWGHGTEVIVSSTSGQAGQYPYDVPDYAS
Turning to B1, the “cytoplasmic Ca2+ removal” value in assay [3] is “accelerates cytoplasmic Ca^2+ removal”.
